Patent US20260374739A1, “SMALL MOLECULAR WEIGHT CHEMICAL COMPOUND TO ANTAGONIZE EPH-EPHRIN TETRAMERIZATION AND INHIBIT BIDIRECTIONAL SIGNALING” (THE BOARD OF REGENTS OF THE UNIVERSITY OF TEXAS SYSTEM, priority 2022, published 2026)
Where two headings read alike, the source gives them in different places.

Legend:
EphB1-EB2 = biological target: T1, EphB1-EB2 (Rattus norvegicus, UniProt P09759); assay: ELISA EB2-His binding to immobilized EphB1-Fc; set-up: species or system mouse EB2; conditions: 5 μM
T1 construct: mouse (Mus musculus) EB2-His ectodomain (Sino Biologicals), ELISA
Description: The 32 hits were then subjected to ELISA in which EphB1-Fc was first immobilized in 96 well Protein A plates, then soluble EB2-His was added with hit compound in triplicate, again at 5 μM. After 2 hr at RT to allow EB2-His binding to EphB1-Fc, wells were washed, incubated with nickel-activated horseradish peroxidase (HisProbe-HRP) to detect bound EB2-His protein, washed, and then incubated with ELISA Pico Chemiluminescent Substrate (both from Thermo-Fisher) before being read in a luminometer. A single-protein counter ELISA using the dual-tagged EphB2-His-Fc ectodomain protein was also run. […] For simplicity, we call this compound A20.

EphB1-EphrinB2 = biological target: T2, EphB1-EphrinB2 (Rattus norvegicus, UniProt P09759); assay: shortened association (80 sec) Octet, immobilized rat EphB1-Fc binding to 100 nM mEB2-His; set-up: species or system mouse EphrinB2; conditions: for Kd: 1:1 fit, read-out: KD of EphB1-EB2; for increase in rate of dissociation (Kdis) / lower affinity of EphB1-EB2 / tetramer accumulation slope: role: inhibitor
T2 construct: rat EphB1-Fc residues 18-538; mouse EB2-His residues 18-232; purchased R&D Systems (EphB1-Fc); Sino Biologicals (EB2-His)
T2 sequence (P09759 18-538): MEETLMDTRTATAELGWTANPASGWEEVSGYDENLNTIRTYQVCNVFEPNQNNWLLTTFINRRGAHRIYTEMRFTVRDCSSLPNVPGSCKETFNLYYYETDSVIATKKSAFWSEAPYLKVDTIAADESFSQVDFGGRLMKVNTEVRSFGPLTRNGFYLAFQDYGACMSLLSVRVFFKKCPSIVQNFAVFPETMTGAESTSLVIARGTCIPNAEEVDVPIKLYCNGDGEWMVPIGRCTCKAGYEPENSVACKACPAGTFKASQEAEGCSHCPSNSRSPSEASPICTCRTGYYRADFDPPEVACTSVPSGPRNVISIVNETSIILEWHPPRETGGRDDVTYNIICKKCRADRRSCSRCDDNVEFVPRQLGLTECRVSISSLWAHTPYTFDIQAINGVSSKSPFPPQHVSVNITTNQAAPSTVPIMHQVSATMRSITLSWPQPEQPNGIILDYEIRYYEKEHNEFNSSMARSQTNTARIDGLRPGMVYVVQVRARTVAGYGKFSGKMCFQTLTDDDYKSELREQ
Description: In the above disclosed Octet interaction studies using human proteins the association and dissociation times were doubled to 800 and 1,000 sec, respectively, resulting in a greater accumulation of the super-stable surmountable and extra-super-stable unsurmountable forms of the Eph-Ephrin tetramers. To better assess early binding activities in the absence of A20, biophysical studies were conducted in which the association times were shortened to 80, 40, 20, 15, 10, and 5 sec, followed by a standard 500 sec dissociation, and where biosensor immobilized rEphB1-Fc ectodomain was exposed to 100 nM soluble mEB2-His. Focusing first on the run with 80 sec association step and for illustrative purpose (FIG. 23), the biosensor response indicates the expected rapid formation of EphB1-EB2 dimers with extremely high 87° slope for the first 10-15 sec of the association, which then quickly bends again as expected this time to a −60° slope as tetramers begin to accumulate. […] The dissociation response then quickly bent to level off and plateau at a signal much higher than baseline to represent the species of stable EphB1-EB2 tetramers that remained complexed throughout the remaining dissociation step.
To assess how A20 chemicals alter early binding activities, 80 sec Octet runs were then conducted using 0, 10, and 100 μM concentrations of the A20 salt compound (FIG. 25A 25B). In the absence of A20, the association response of immobilized EphB1 binding to soluble EB2 is typical to that shown in FIG. 24 and indicates rapid early formation of dimers with very high 87° slope that quickly bends to the tetramerization accumulation slope of −60°, and then once in the dissociation step the slope abruptly reverses to show fast-off of the dimer species with a signal that then leveled off in this experiment at 67% of the maximum response and represents accumulation of the stable tetramers. In runs containing A20, even though there was no effect on the early and fast formation of dimers during the 80 sec association step, there was a clear and very strong dose-dependent reduction in accumulation of the tetramer.
This can be especially seen in the analysis of the kinetic data where the parameters were set to calculate information based off of a 1:1 interaction (FIG. 25C). […] This increased rate of dissociation reflects the near absence in formation of stable tetramers and provides a fairly accurate representation of the Kdis that is specifically attributed to the fast-off melting of dimers. Summarizing these biophysical studies, in the presence of A20 only the fast-on/fast-off dimers form and are visualized in the association step, quickly reaching a homeostasis level of dimers forming and melting in equilibrium (fast-on/fast-off), and not being able to associate into tetramers. Then, when placed into the dissociation step, all the existing dimers quickly melt off leaving behind the few tetramers that were able to form. […] Based on the results, it is concluded that A20 chemicals can be classified as specific/select inhibitors of Eph-Ephrin tetramerization.

Oc1c(Br)cc(CN2CCOCC2)c2cccnc12 [Compound 5, 7-bromo-5-(morpholinomethyl)quinolin-8-ol]
ELISA signal (EphB1-EB2): reduced signal in the two-protein ELISA
Kd (EphB1-EphrinB2; in presence of 10 μM A20): 0.0105 µM
Kd (EphB1-EphrinB2; in presence of 100 μM A20): 0.0462 µM
increase in rate of dissociation (Kdis) (EphB1-EphrinB2; 10 μM A20): 90 fold
lower affinity of EphB1-EB2 (EphB1-EphrinB2; 10 μM A20): 76 fold
tetramer accumulation slope (EphB1-EphrinB2; 10 μM A20, 60° without): 16 °
increase in rate of dissociation (Kdis) (EphB1-EphrinB2; 100 μM A20): 275 fold
lower affinity of EphB1-EB2 (EphB1-EphrinB2; 100 μM A20): 337 fold
tetramer accumulation slope (EphB1-EphrinB2; 100 μM A20): flat line with no slope
